What was measured:
[1] = system: MCF-7 cells; assay: Microscopic cell morphology (bright field, AO/EB, PI), MCF-7; format: cell-based, human; settings: 50 nM light-activated calphostin C
Protocol: (§1) For microscopic observation, cells were seeded onto standard glass coverslips in 10 cm tissue culture plates with 10 ml of H21 medium and grown for 2 days until 40-50% confluence was obtained. After treatment with paclitaxel, doxorubicin or calphostin C, the cells on the glass coverslips were washed twice with PBS (2.7 mM KCl, 1.0 mM KH2PO4, 137 mM NaCl, 10 mM Na2HPO4, pH 7.4) and stained with acridine orange/ethidium bromide (each at 4 μg/ml in PBS) for 10 min at 37° C.. The coverslips were then washed three times in PBS and mounted onto standard glass slides for morphological evaluation. For propidium iodide (PI) staining, the cells on coverslips were washed twice with PBS and fixed in methanol (cooled to −20° C.) for 20 min. Thirty μl of propidium iodide (PI) staining solution (100 μg/ml PI, 0.1% sodium citrate, 100 μg/ml RNase A and 0.3% Nonidet P-40) were then applied to the coverslips for 5 min. […] The cells were then examined using a Zeiss Axiovert 100 inverted fluorescence microscope. […] For each sample, the number of dead cells was determined by visualization after ethidium bromide staining, whereby only dead cells which have lost membrane integrity allow entry of cell-impermeable ethidium bromide into cells to complex with DNA and induce bright red fluorescence. […] The images were recorded and overlayed using Northern Eclipse software (Empix Imaging Inc., Mississauga, ON).

[2] = system: MCF-7 cells; assay: Clonogenic assay, MCF-7 cells; format: cell-based, human; settings: 24 h drug, calphostin C light-activated 2 h, read-out: IC50 (concentration required to kill or inhibit the growth of 50% of cells)
Protocol: (§2) The breast cancer cell line MCF-7 (lot HTB-22) was obtained from the American […] (ATCC) and maintained in Dulbecco's H21 medium (MEM) supplemented with 10% Fetal Bovine Serum (FBS) (HyClone, Logan, Utah) in a humidified atmosphere containing 5% CO2 at 37° C. To establish drug resistant cell lines, MCF-7 cells were grown in the presence of either paclitaxel or doxorubicin, beginning at a concentration 1000-fold below that required to kill 50% of the cells (the IC50). The drug concentration was increased 3-fold every two weeks (two passages), with an aliquot of the cells removed for storage in liquid nitrogen before each increase in concentration. Dose escalation continued until all cells died, after which the cells able to tolerate the highest concentration of drug were thawed for subsequent study. In this way, paclitaxel-resistant (MCF-7TAX) and doxorubicin-resistant (MCF-7DOX) cell lines were established. The IC50 for each drug was determined using a clonogenic assay as outlined below. The drug resistant cells were kept in culture in the presence of the maximally tolerated drug dose. Before each experiment, the cell lines were grown for two days in the absence of drug after which fresh medium containing either calphostin C (Sigma Laboratories, Oakville, ON), doxorubicin (Adriamycin PFS®, USP, Mississauga, ON) or paclitaxel (Taxol, Bristol-Myers Squibb, Montreal, QC) was added at the concentrations indicated.
(§3) The sensitivity of MCF-7, MCF-7TAX and MCF-7DOX cells to calphostin C, paclitaxel or doxorubicin was determined using a clonogenic assay. Briefly, 2.5×10^5 cells were seeded into 25 cm^2 tissue culture flasks in Dulbecco's H21 medium supplemented with 10% FBS. The cells were allowed to grow overnight, after which the medium was removed and replaced with medium containing varying concentrations of paclitaxel, doxorubicin, or calphostin C (after 2 hours of light exposure to activate the molecule). […] The colonies present in 5 randomly selected fields were then counted by visual inspection. […]

[3] = system: MCF-7TAX cells; assay: Flow cytometric sub-G1 DNA content, MCF-7TAX; format: cell-based, human; settings: 100 nM calphostin C, 2 h light
Protocol: For flow cytometric analysis, cells at about 50% to 60% confluence were released from their flasks by trypsin treatment and washed with PBS. After centrifugation at 1000 rpm for 5 min, cells were then fixed by resuspension in 75% ethanol for 2 hours, collected by centrifugation, and resuspended in PI staining solution (see above) for 1 h. For each sample, approximately 2×10^4 cells were analyzed using a Beckman Coulter Epics® Elite flow cytometer. Fluorescence intensity upon stimulation with an argon-ion laser at 488 nm was measured using the PMT4 channel (625DL filter) and plotted against cell number. The percentage of cells with a sub-G1 DNA content was determined by the flow cytometer, adjusting the gates such that only cells with a fluorescence lower than the peak for untreated cells in G1 are counted (see FIG. 4).

[4] = system: Chinese hamster ovary (CHO) cells; assay: Death and cytoplasmic vacuolization, CHO; format: cell-based; settings: data not shown
[5] = system: MCF-7DOX cells; assay: Microscopic cell morphology, MCF-7DOX; format: cell-based, human; settings: data not shown
Protocol: as §1

[6] = system: human 293T embryonic kidney cells; assay: Death and cytoplasmic vacuolization, 293T; format: cell-based; settings: data not shown
[7] = system: MCF-7TAX (paclitaxel-resistant) cells; assay: Clonogenic assay, MCF-7TAX cells; format: cell-based, human; settings: MCF-7TAX cells; 24 h drug; calphostin C light-activated 2 h
Protocol: as §2, §3

COc1c(C[C@@H](C)OC(=O)Oc2ccc(O)cc2)c2c3c(C[C@@H](C)OC(=O)c4ccccc4)c(OC)c(=O)c4c(O)cc(OC)c(c5c(OC)cc(O)c(c1=O)c52)c43 [calphostin C]
percentage of cells showing cytoplasmic vacuoles [1]: Over 50%
IC50 [2]: 13.2 nM
time of strong increase in percentage of sub-G1 cells after treatment [3]: 8 h
induction of death and cytoplasmic vacuolization [4]: induce both death and cytoplasmic vacuolization
concentration giving cytoplasmic vacuolization equal to MCF-7 and MCF-7TAX cells at 50 nM [5]: 300 nM
induction of death and cytoplasmic vacuolization [6]: induce both death and cytoplasmic vacuolization
IC50 [7]: 9.2 nM

Source: patent US7371780B2, “Use of calphostin C to treat drug-resistant tumor cells” (priority 2003, dated 2008)
